Data on ten compounds can be found in patent US6444664B1, “Method for controlling the plasma level of lipoproteins to treat alzheimeris disease” (Nederlandse Organisatie voor Toegepast - Natuurweten …, priority 1997, dated 2002).

Molecules are shown by their SMILES. Where two headings read alike, the source gives them in different places.

In assay [1] the test system is apo A-I. In words: Apo A-I synthesis by cultured cynomolgus (simian) hepatocytes, ELISA of medium. The conditions noted are these: culture period 48 h to 72 h. The format is cell-based, cynomolgus monkey. Background: An ELISA detects its analyte on a solid surface through an enzyme-linked reagent.
In assay [2] the test system is apo(a). In words: Apo(a) synthesis by cultured cynomolgus (simian) hepatocytes, ELISA of medium. Format: cell-based, cynomolgus monkey. The conditions noted are these: culture period 48 h to 72 h.
The test system of assay [3] is apo B-100. Description: Apo B-100 synthesis by cultured cynomolgus (simian) hepatocytes, ELISA of medium. Format: cell-based, cynomolgus monkey. The conditions noted are these: culture period 48 h to 72 h.
In assay [4] the test system is lp(a). The conditions noted are these: cited from earlier work.
The subject of assay [5] is apo A-I. In words: Apo A-I synthesis by cultured human hepatocytes, ELISA of medium. The format is cell-based. The conditions noted are these: culture period 48 h to 72 h.
In assay [6] the test system is apo(a). Description: Apo(a) synthesis by cultured human hepatocytes, ELISA of medium. The format is cell-based. The conditions noted are these: culture period 48 h to 72 h.
The test system of assay [7] is apo B-100. In words: Apo B-100 synthesis by cultured human hepatocytes, ELISA of medium. The format is cell-based. The conditions noted are these: culture period 48 h to 72 h.
Assay [8] relates to apo A-I mRNA. In words: Apo A-I mRNA levels in cynomolgus hepatocytes, RNA hybridization. The conditions noted are these: 100 μM, cultured 48 h. The format is cell-based, cynomolgus monkey. As for the experimental part:
(§1) Total RNA was isolated from cynomolgus hepatocytes, cultured for 48 h in the presence or absence of the compounds, by the method of Chomczynski & Sacchi (33). After washing the RNA pellets with 70% (v/v) ethanol, RNA samples were dissolved in water. The RNA concentration in each sample was determined spectrophotometrically, assuming that one A260 unit corresponds with 40 μg RNA/mL. Equal amounts of total RNA (10 μg) from different incubations were fractionated by, elcctrophoresis in a 0.8% (w/v) agarose gel containing 0.27 M formaldehyde, and transferred to Hybond-N+ (Amershamn) in accordance with the manufacturer's instructions and UV cross-linked. Probes, labelling conditions and hybridization were performed as described previously in detail (25).
(§2) Apo(a) mRNAs were detected using a kringle IV synthetic double-stranded probe of 75 nucleotides with the sense sequence: GGGAATTCGAACCTGCCAAGCTTGGTCATCTATGACACCACACTCGCATAGTCGGACCCC AGAATAAAGCTTGGG, based on the sequence published by McLean et al (34). This probe was labelled by the random primer method according to Megaprime™ DNA labelling systems (Amersham). After hybridization, the blots were washed twice with 2×SSC/1% SDS (1×SSC=0.15 mol/L NaCl/0.015 mol/L sodium citrate, pH 7.0) and twice with 1×SSC/1% SDS for 30 min at 65° C. The blots were exposed to a Fuji imaging plate type BAS-MP for 1 to 24 h. The relative amounts of mRNA were quantified using a phospho-imager (Fuji Fujix BAS 1000) and the computer programs BAS-reader version 2.8 and TINA version 2.08 c.
(§3) Data shown in table 2 are obtained from measurements using RNA isolated from hepatocytes cultured for 48 h with or without the compounds.

Assay [9] concerns apo(a) mRNA. In words: Apo(a) mRNA levels in cynomolgus hepatocytes, RNA hybridization. Format: cell-based, cynomolgus monkey. The conditions noted are these: 100 μM, cultured 48 h. The procedure:
as §1, §2, §3

Assay [10] relates to apo A-I mRNA. In words: Apo A-I mRNA levels in human hepatocytes, RNA hybridization. Format: cell-based. The conditions noted are these: 100 μM, cultured 48 h.
The test system of assay [11] is apo(a) mRNA. Description: Apo(a) mRNA levels in human hepatocytes, RNA hybridization. The format is cell-based. The conditions noted are these: 100 μM, cultured 48 h. As for the experimental part:
as §1, §2, §3

As to `CCCCCCCCCCCCCCCCCCNC(=O)OC[C@@H]1CC[C@H](COP(=O)([O-])OCC[n+]2cccc3ccccc32)O1` (relative stereo) [SRI 63-441, O-cis-5-(octadecylcarbamoyloxymethyl)-2-tetrahydrofurylmethyl O-(2-quinolinio-ethyl) hydrogen phosphate, reference compound], in assay [1] (100 μM), the “Apo A-I synthesis” value was 166 ± 6 (2) % of control. In addition, the “Apo(a) synthesis” value in assay [2] (100 μM) is 24 ± 1 (2) % of control. For the same compound, the “Apo B-100 synthesis” value in assay [3] (100 μM) was 142 ± 32 (2) % of control.

Turning to `O=C(O)c1cccnc1` [nicotinic acid], the “Reduction of plasma levels of lp(a)” value in assay [4] (alone (4 g/day)) is around 38%; in assay [4] (in combination with neomycine (3 g/day and 2 g/day respectively)) it was around 45%.

For `Brc1nnc2n1-c1ccccc1C(c1ccccc1)=NC2` [Azepine 4], the “Apo A-I synthesis” value in assay [1] (100 μM) is reported as 390 ± 40 (2) % of control. In assay [2] (100 μM), the “Apo(a) synthesis” value is reported as 62 ± 22 (2) % of control. Further, the “Apo B-100 synthesis” value in assay [3] (100 μM) is recorded as 95 ± 23 (2) % of control.

`CC1C(=O)OC2C(O)C34C5CC(C(C)(C)C)C36C(OC(=O)C6O)OC4(C(=O)O5)C12O` (stereo not shown) [BN 52051, Ginkgolide B, reference compound]: the “Apo A-I synthesis” value in assay [1] (100 μM) is on record as 144 ± 34 (2) % of control. The “Apo(a) synthesis” value in assay [2] (100 μM) is on record as 101 ± 1 (2) % of control. Also, the “Apo B-100 synthesis” value in assay [3] (100 μM) is reported as 113 ± 34 (2) % of control.

With `COc1cc([C@H]2CC[C@H](c3cc(OC)c(OC)c(OC)c3)O2)cc(OC)c1OC` (relative stereo) [L-652,731, Trans-2,5-bis(3,4,5-trimethoxyphenyl)tetrahydrofuran, reference compound], the “Apo A-I synthesis” value in assay [1] (100 μM) is reported as 134 ± 1 (2) % of control. Further, in assay [2] (100 μM), the “Apo(a) synthesis” value is given as 66 ± 8 (2) % of control. In addition, in assay [3] (100 μM), the “Apo B-100 synthesis” value was 76 ± 35 (2) % of control.

With `COc1cc([C@@H]2OC[C@H](c3cc(OC)c(OC)c(OC)c3)O2)cc(OC)c1OC` (relative stereo) [Cisdioxolane, Cis-2,4-bis(3,4,5-trimethoxyphenyl)dioxolane, reference compound], the “Apo A-I synthesis” value in [1] (100 μM) is 229 ± 79 (2) % of control. Also, the “Apo(a) synthesis” value in assay [2] (100 μM) is 83 ± 2 (3) % of control. Moreover, the “Apo B-100 synthesis” value in assay [3] (100 μM) is reported as 99 ± 21 (3) % of control.

As for `c1ccc(C2=NCc3nncn3-c3sccc32)cc1` [Azepine 2], in assay [1] (30 μM), the “Apo A-I synthesis” value is reported as 178 (1) % of control. The “Apo(a) synthesis” value in assay [2] (30 μM) is given as “no change”.

Take `Cc1nnc2n1-c1ccc(Cl)cc1C(c1ccccc1)=NC2C` (stereo not shown) [Azepine 3]: the “Apo A-I synthesis” value in assay [1] (100 μM) is 359 ± 74 (3) % of control. The “Apo(a) synthesis” value in assay [2] (100 μM) was 42 ± 20 (3) % of control. Moreover, the “Apo B-100 synthesis” value in assay [3] (100 μM) is 102 ± 32 (2) % of control.

As to `Cc1nnc2n1-c1sccc1C(c1ccccc1)=NC2` [Azepine 1], the “Apo A-I synthesis” value is recorded as 152 ± 30 (2) % of control in assay [1] (3 μM); 185 ± 20 (6) % of control in [1] (10 μM); 225 ± 45 (6) % of control in assay [1] (30 μM); 367 ± 131 (6) % of control in [1] (100 μM); 164 ± 61 (2) % of control in assay [5] (3 μM); 283 ± 109 (2) % of control in assay [5] (10 μM). The “Apo A-I synthesis” value is reported as 622 ± 228 (2) % of control in assay [5] (30 μM) and 721 ± 212 (2) % of control in [5] (100 μM). Also, the “Apo(a) synthesis” value was 85 ± 5 (2) % of control in assay [2] (3 μM); 76 ± 19 (6) % of control in [2] (10 μM); 48 ± 28 (6) % of control in [2] (30 μM); 34 ± 32 (6) % of control in assay [2] (100 μM); 75 (1) % of control in assay [6] (3 μM); 48 (1) % of control in [6] (10 μM). In addition, the entries for the “Apo(a) synthesis” value in [6] (30 μM) and in [6] (100 μM) were 24 (1) % of control and 14 (1) % of control, respectively. Besides, the “Apo B-100 synthesis” value is recorded as 117 ± 10 (2) % of control in assay [3] (3 μM); 113 ± 20 (6) % of control in [3] (10 μM); 106 ± 27 (6) % of control in [3] (30 μM); 95 ± 23 (6) % of control in [3] (100 μM); 83 ± 16 (2) % of control in [7] (3 μM); 112 ± 3 (2) % of control in assay [7] (10 μM). In addition, the “Apo B-100 synthesis” value in assay [7] (30 μM) is reported as 109 ± 8 (2) % of control; in assay [7] (100 μM), 114 ± 8 (2) % of control. In addition, the “Apo A-I mRNA levels relative to GAPDH” value in [8] is given as 147 ± 28 (3) % of control; in assay [10], 111 (1) % of control. Besides, the “Apo A-I mRNA levels relative to actin” value in assay [8] is recorded as 328 ± 7 (3) % of control; in assay [10], 203 (1) % of control. Further, the “Apo A-I mRNA levels relative to rRNA” value was 229 ± 8 (3) % of control in assay [8] and 308 (1) % of control in [10]. Besides, the “Apo(a) mRNA levels relative to GAPDH” value in assay [9] is recorded as 39 ± 4 (3) % of control; in assay [11], 24 (1) % of control. The results for the “Apo(a) mRNA levels relative to actin” value in assay [9] and in [11] were 86 ± 7 (3) % of control and 44 (1) % of control, respectively. Besides, the results for the “Apo(a) mRNA levels relative to rRNA” value in assay [9] and in assay [11] were 56 ± 12 (3) % of control and 67 (1) % of control, respectively.

As for `COc1cc([C@@H]2OC[C@@H](c3cc(OC)c(OC)c(OC)c3)O2)cc(OC)c1OC` (relative stereo) [Transdioxolane, Trans-2,4-bis(3,4,5-trimethoxyphenyl)dioxolane, reference compound], the “Apo A-I synthesis” value in [1] (30 μM) is recorded as 116 ± 7 (3) % of control; in assay [1] (100 μM), 157 ± 2 (3) % of control. The “Apo(a) synthesis” value in [2] (30 μM) is recorded as 103 ± 9 (3) % of control; in assay [2] (100 μM) it was 60 ± 12 (3) % of control. Besides, the figures for the “Apo B-100 synthesis” value in assay [3] (30 μM) and in assay [3] (100 μM) were 117 ± 23 (3) % of control and 105 ± 7 (3) % of control, respectively.
